In article PMC10216478, “Development of a Non-Peptide Angiotensin II Type 1 Receptor Ligand by Structural Modification of Olmesartan as a Biased Agonist” (Biomedicines, 2023):
Numbering of substitutions follows the chain as printed.

What was measured:
AT1 L112A receptor = molecular target: T1, AT1 L112A receptor (Rattus norvegicus, UniProt P25095, L112A); experiment: Immunoblotting of ERK 1/2 activation in COS7 cells overexpressing AT1-L112A receptor; type: cell-based; conditions: 1 µM ligands or 0.1 µM Ang II, 10 min, n = 5, vs. (-)
T1 construct: expressed in transfected cells; host or cells: COS7
T1 sequence (P25095 1-359 L112A): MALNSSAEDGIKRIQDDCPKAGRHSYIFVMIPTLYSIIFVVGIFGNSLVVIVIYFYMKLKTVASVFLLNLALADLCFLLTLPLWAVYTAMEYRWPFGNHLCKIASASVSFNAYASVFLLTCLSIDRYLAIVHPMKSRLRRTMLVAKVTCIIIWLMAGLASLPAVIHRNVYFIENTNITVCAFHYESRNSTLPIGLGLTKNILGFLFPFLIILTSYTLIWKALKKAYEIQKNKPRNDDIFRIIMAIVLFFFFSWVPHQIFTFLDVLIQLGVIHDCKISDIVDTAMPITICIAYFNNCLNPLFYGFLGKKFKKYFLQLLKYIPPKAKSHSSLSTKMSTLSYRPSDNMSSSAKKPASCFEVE
Experimental: The synthetic rat AT1 receptor gene, which was cloned in the shuttle expression vector pMT-2, was used for expression and mutagenesis, as described previously. […] In the experiments, cells were grown without a cell-growth supplement. To express the AT1 receptor protein, 10 µg of purified plasmid DNA per 10^7 cells was used in the transfection. Wild-type and mutated AT1 receptors were transiently transfected into cells using Lipofectamine 2000 liposomal reagent (Roche Applied Science, Penzberg, Germany). Cells were plated and grown and were 70–90% confluent at the time of transfection. We incubated plasmid DNA (10 µg)–lipid (10 µL) complexes for 5 min at room temperature and added and incubated the complexes with cells for 24 h. We then analyzed the parameters in transfected cells. […] Transfected cells that had been cultured for 48–72 h were harvested. Cell membranes were prepared using the nitrogen Parr bomb disruption or freeze–thaw methods.
In in vitro studies, ERK 1/2 activation by 1 µM ligands or 0.1 µM Ang II incubated for 10 min was measured using COS7 cells that overexpressed AT1 wild-type and mutant receptors. ERK activity was measured in cells maintained for 18 h in DMEM containing 0.1% serum. At the end of the stimulation, the culture medium was removed by aspiration, the cells were washed with ice-cold phosphate-buffered saline, and the dishes were frozen in liquid nitrogen. The cells were scraped using a scraper after melting, and the scraped cells were transferred to a tube. We homogenized the cells in lysis buffer plus protease inhibitors and determined the protein concentration using the bicinchoninic acid method. […] We fractionated total proteins using sodium dodecyl sulfate polyacrylamide gel electrophoresis; we then transferred the proteins to a Hybond nitrocellulose membrane and blocked the blotted membranes with 10% bovine serum albumin in tris-buffered saline buffer (50 mM Tris–HCl pH 7.6, 150 mM NaCl) for 1 h at room temperature. […] An enhanced chemiluminescent substrate system (Amersham, Buckinghamshire, UK) was used. The signal was independently quantified by digital image analysis (ImageJ, National Institutes of Health, Bethesda, MD, USA).

AT1 Y292A receptor = molecular target: T2, AT1 Y292A receptor (Rattus norvegicus, UniProt P25095, Y292A); experiment: Competition binding study, 125I-[Sar1,Ile8]Ang II, AT1 Y292A receptor; conditions: competition with 125I-[Sar1,Ile8]Ang II, n = 3, mean ± standard error, read-out: Binding affinity (Kd)
T2 construct: expressed in transfected cells; host or cells: COS7
T2 sequence (P25095 1-359 Y292A): T1 sequence (P25095 1-359 L112A) with A112L, Y292A
Excerpt: We mutated four amino acids in transmembrane (TM) III, VI, and VII in the AT1 receptor (L112A, Q257A, Y292A, and N295A receptors). We determined the mutation sites of the AT1 receptor according to ARB, which produced olmesartan derivatives with different interactions and functions toward the AT1 receptor, as previously reported by Zhang et al., since the additional 4-hydroxybenzyl groups of R781253 and R794847 were predicted to extend to a sub-pocket on the bottom of the AT1 receptor ligand-binding pocket consisting of Leu^112 and Gln^257. In addition, since the biased ligand TRV027 induced changes near the NPxxY motif in TM domain 7 that are related to receptor activation, Tyr^292 and Asn^295 in the AT1 receptor were mutated.
The synthetic rat AT1 receptor gene, which was cloned in the shuttle expression vector pMT-2, was used for expression and mutagenesis, as described previously. COS7 cells (No. CRL-1651, ATCC, Manassas, VA, USA) were cultured in 10% fetal bovine serum (FBS) and penicillin- and streptomycin-supplemented Dulbecco’s modified Eagle’s essential medium (PS-DMEM) in 5% CO2 at 37 °C. In the experiments, cells were grown without a cell-growth supplement. To express the AT1 receptor protein, 10 µg of purified plasmid DNA per 10^7 cells was used in the transfection. Wild-type and mutated AT1 receptors were transiently transfected into cells using Lipofectamine 2000 liposomal reagent (Roche Applied Science, Penzberg, Germany). Cells were plated and grown and were 70–90% confluent at the time of transfection. We incubated plasmid DNA (10 µg)–lipid (10 µL) complexes for 5 min at room temperature and added and incubated the complexes with cells for 24 h. We then analyzed the parameters in transfected cells. Cell viability was >95% according to trypan blue exclusion analysis in the control experiments. Transfected cells that had been cultured for 48–72 h were harvested. Cell membranes were prepared using the nitrogen Parr bomb disruption or freeze–thaw methods.
The Kd (nM) values of receptor binding were determined with ^125I-[Sar^1, Ile^8]AngII-binding experiments under equilibrium conditions. Binding kinetics were determined following the methods described in the literature. We carried out binding by using ^125I-[Sar^1, Ile^8] AngII (2200 Ci/mmol) and an increasing concentration (10^−11–10^−5 M) of each unlabeled compound. Nonspecific binding of ^125I-[Sar^1, Ile^8] Ang II was determined in the presence of a high concentration (10^−6 M) of unlabeled [Sar^1, Ile^8]. Next, the incubation mixture was separated by vacuum filtration through Whatman GF/C glass filters (Disposable Filter Funnels Grade GF/C, GE Healthcare), and presoaked with 0.1% polyethylenimine. The filter was washed with 3 mL of ice-cold stop buffer (25 mM Tris–HCl, pH 7.4, 1 mM MgCl2). The radioactivity trapped on the filters was quantified using an automatic γ-counter. The percentage (%) of specific binding of ^125I-[Sar^1, Ile^8]Ang II was calculated using the following formula: 100 × (% total binding of ^125I-[Sar^1, Ile^8]Ang II—nonspecific binding of ^125I-[Sar^1, Ile^8]Ang II)/(% total binding of ^125I-[Sar^1, Ile^8]Ang II).

| Structure (SMILES) | ERK1/2 activation (AT1 L112A receptor) | Kd (AT1 Y292A receptor) [nM] |
| --- | --- | --- |
| CCCc1nc(C(C)(C)O)c(C(N)=O)n1Cc1ccc(-c2cc(Cc3ccc(O)cc3)ccc2-c2nnn[nH]2)cc1 [R794847] | activated ERK1/2 | 30 ± 8 |
| CCCc1nc(C(C)(C)O)c(C(=O)O)n1Cc1ccc(-c2cc(Cc3ccc(O)cc3)ccc2-c2nnn[nH]2)cc1 [R781253] | activated ERK1/2 | 95 ± 7 |
| CCCc1nc(C(C)(C)O)c(C(N)=O)n1Cc1ccc(-c2ccccc2-c2nnn[nH]2)cc1 [R239470] | but not R239470, activated ERK1/2 | 6.3 ± 3.8 |
| CCCc1nc(C(C)(C)O)c(C(=O)O)n1Cc1ccc(-c2ccccc2-c2nnn[nH]2)cc1 [Olmesartan, olmesartan] | did not change ERK1/2 activation | 47 ± 15 |
